# Results as given in PMC4992889, “The viral capping enzyme nsP1: a novel target for the inhibition of chikungunya virus infection” (Scientific Reports, 2016).
# Where two headings read alike, the source gives them in different places.
# Columns and labels:
# [1] = test system: CHIKV strain 899; experiment: CPE reduction antiviral assay, CHIKV 899 in Vero A cells (MTS/PMS); assay type: cell-based; conditions: Chikungunya virus
# [2] = test system: CHIKV; experiment: Time-of-addition study, CHIKV RNA reduction; assay type: cell-based, Chikungunya virus; conditions: for reduction in CHIKV RNA: added 6 h post infection, assessed at 24 h post infection
# [3] = test system: MADTP-314res CHIKV 899 variant; experiment: microbe, parasite or virus in culture; assay type: cell-based, Chikungunya virus; conditions: for EC50: Chikungunya virus, read-out: EC50 MADTP-314res variant 3 (resistance selection)
# [4] = test system: CHIKV pseudoparticles (CHIKVpp); assay type: cell-based, Chikungunya virus
# [5] = test system: CHIKV; conditions: clinical studies; cited from earlier work
# [6] = test system: CHIKV; conditions: cited from earlier work
# [7] = test system: CHIKV Congo 95 (2011); experiment: Viral RNA reduction (qRT-PCR) antiviral assay in Vero E6 cells; assay type: cell-based; conditions: Chikungunya virus, Vero C1008, read-out: EC50, in vitro antiviral activity against CHIKV Congo 95 (2011)
# [8] = test system: VEEV TC83; experiment: microbe, parasite or virus in culture; assay type: cell-based; conditions: Venezuelan equine encephalitis virus, Vero C1008, read-out: EC50, in vitro antiviral activity against VEEV TC83
# [9] = test system: WT CHIKV LS3; experiment: microbe, parasite or virus in culture; assay type: cell-based, Chikungunya virus; conditions: for EC50: Chikungunya virus, Vero C1008, read-out: EC50 WT LS3 (reverse genetics)
# [10] = molecular target: T1, VEEV nsP1 (Venezuelan equine encephalitis virus, UniProt P36328); experiment: biochemical
# T1 sequence (P36328 1-535 limits assumed): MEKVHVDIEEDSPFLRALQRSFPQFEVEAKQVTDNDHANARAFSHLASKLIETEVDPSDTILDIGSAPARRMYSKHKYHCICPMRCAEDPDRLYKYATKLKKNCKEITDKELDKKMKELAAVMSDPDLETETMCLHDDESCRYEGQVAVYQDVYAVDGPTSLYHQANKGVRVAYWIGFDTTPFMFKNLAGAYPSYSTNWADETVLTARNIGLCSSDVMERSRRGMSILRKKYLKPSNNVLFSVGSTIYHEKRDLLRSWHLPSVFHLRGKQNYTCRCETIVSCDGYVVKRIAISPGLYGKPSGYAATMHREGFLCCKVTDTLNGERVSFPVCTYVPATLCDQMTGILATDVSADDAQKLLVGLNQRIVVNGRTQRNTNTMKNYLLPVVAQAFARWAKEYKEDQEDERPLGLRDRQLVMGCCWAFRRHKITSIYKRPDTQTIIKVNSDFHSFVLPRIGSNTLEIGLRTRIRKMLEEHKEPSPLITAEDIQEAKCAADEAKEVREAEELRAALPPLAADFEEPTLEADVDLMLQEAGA
# [11] = molecular target: CHIKV replication/transcription complexes (RTCs) (Chikungunya virus, UniProt Q8JUX6); experiment: In vitro RNA synthesis assay with isolated CHIKV replication/transcription complexes (32P-CTP incorporation); assay type: biochemical; conditions: 250 μM
# Sequence of CHIKV replication/transcription complexes (RTCs) (Q8JUX6 1864-2474 limits assumed): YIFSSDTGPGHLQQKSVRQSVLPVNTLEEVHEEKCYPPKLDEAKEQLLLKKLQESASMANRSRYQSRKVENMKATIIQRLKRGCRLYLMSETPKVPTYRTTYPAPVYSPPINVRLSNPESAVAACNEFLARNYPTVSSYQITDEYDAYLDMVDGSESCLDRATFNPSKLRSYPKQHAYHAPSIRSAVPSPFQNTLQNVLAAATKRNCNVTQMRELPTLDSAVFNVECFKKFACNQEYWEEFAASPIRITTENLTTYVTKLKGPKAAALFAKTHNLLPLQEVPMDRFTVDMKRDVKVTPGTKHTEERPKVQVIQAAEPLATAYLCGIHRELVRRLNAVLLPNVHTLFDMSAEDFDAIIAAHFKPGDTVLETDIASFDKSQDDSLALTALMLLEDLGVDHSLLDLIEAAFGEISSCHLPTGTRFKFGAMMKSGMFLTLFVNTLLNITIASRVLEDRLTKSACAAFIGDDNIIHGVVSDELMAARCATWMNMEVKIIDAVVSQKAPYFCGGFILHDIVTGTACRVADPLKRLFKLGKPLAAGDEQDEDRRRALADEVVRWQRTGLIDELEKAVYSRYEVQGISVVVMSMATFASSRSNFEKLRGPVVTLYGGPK
# Sequence of CHIKV replication/transcription complexes (RTCs) (Q8JUX6 1-535 partner limits assumed): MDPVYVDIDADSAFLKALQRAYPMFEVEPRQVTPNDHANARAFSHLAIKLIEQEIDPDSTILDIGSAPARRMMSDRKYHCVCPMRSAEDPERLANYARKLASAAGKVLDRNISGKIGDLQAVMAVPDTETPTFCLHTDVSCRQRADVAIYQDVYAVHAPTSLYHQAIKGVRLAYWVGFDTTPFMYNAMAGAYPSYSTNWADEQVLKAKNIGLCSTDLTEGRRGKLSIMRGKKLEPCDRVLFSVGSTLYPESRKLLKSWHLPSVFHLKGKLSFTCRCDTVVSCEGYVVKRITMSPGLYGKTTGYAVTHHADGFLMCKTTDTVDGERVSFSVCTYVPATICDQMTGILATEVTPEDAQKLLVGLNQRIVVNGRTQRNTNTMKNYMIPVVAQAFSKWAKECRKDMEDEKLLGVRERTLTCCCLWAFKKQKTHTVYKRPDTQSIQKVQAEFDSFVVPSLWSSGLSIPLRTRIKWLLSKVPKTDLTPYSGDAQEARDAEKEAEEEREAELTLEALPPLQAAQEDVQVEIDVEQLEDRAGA
# Sequence of CHIKV replication/transcription complexes (RTCs) (Q8JUX6 536-1333 partner limits assumed): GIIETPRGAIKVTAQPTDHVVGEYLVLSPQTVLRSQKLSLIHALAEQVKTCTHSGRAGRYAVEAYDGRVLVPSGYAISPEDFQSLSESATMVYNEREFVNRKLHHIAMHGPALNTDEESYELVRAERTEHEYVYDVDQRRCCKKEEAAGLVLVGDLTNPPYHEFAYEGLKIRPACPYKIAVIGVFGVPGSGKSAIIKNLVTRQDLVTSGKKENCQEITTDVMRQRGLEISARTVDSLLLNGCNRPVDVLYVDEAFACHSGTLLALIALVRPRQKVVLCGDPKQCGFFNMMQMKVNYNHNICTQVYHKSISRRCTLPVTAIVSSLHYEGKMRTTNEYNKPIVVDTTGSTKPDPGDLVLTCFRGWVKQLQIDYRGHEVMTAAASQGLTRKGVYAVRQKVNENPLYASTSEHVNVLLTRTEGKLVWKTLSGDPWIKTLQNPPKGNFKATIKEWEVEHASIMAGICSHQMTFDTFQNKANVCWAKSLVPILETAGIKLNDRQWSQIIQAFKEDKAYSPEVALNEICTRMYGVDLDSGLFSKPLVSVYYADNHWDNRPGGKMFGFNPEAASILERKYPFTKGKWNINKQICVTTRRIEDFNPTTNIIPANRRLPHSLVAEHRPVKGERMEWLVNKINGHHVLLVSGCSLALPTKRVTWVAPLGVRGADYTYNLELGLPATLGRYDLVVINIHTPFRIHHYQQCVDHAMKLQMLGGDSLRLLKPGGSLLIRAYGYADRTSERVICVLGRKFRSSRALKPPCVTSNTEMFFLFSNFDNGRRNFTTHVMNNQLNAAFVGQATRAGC
# [12] = test system: CHIKV RNA synthesis; experiment: Metabolic labeling with 3H-uridine of CHIKV RNA in infected Vero E6 cells; assay type: cell-based, Chikungunya virus; conditions: 50–250 μM
# [13] = test system: translation of incoming capped CHIKV RNA; assay type: cell-based, Chikungunya virus; conditions: 250 μM
# [14] = test system: CHIKV Venturini (Italy 2008); experiment: Viral RNA reduction (qRT-PCR) antiviral assay in Vero E6 cells; assay type: cell-based; conditions: Chikungunya virus, Vero C1008, read-out: EC50, in vitro antiviral activity against CHIKV Venturini (Italy 2008)
# [15] = in vitro; conditions: African green monkey
# [16] = molecular target: T1, VEEV nsP1; experiment: biochemical; assay type: biochemical
# [17] = test system: CHIKV strain 899; conditions: cited from earlier work
# [18] = test system: Vero cells; conditions: cited from earlier work
# [19] = test system: CHIKV; conditions: cited from earlier work; remark: listed apart in the source
# [20] = read-out: EC50 WT 899 (resistance selection)
# [21] = 120 h, read-out: EC50, in vitro antiviral activity against CHIKV 899 (lab)
Structure (SMILES),EC50 [3] [µM],entry of CHIKV pseudoparticles into the host cell [4],EC50 [7] [µM],"EC50 [1, 21] [µM]",EC50 [8] [µM],EC50 [9] [µM],IC50 [10] [µM],EC50 [14] [µM],CC50 [15] [µM],further results
CCN(CC)CCCC(C)Nc1ccnc2cc(Cl)ccc12 (stereo not drawn) [Chloroquine],20 ± 4.7,inhibited CHIKVpp entry in a dose-dependent manner,–,–,–,–,–,–,–,"EC50 [1, 20]: 18 ± 11 µM; reduction of CHIKV RNA ([2]; added 2 h before infection): 2 log10; protective activity in time-of-addition ([2]; added at time points later than 1 h p.i.): entirely lost its protective activity; cross-resistance of MADTP-314-resistant variants [3]: No cross-resistance; efficacy in infected patients [5]: failed to prove its efficacy; effect on CHIKV replication in vitro [6]: dose- and time-dependent inhibitory effect"
"CC(=O)c1cccc(-n2nnc3c(=O)[nH]c(C)nc32)c1 [MADTP-314, 3-(3′-acetylphenyl)-5-methyl-3H-[1,2,3]triazolo[4,5-d]pyrimidin-7(6H)-one]",283 ± 45,not able to block the entry,6.4 ± 0.1,26 ± 11,> 40,40 ± 5,> 1000,26 ± 2,> 743,"reduction in CHIKV RNA [2]: 1.3 log10; fold less sensitive, CHIKV LS3 vs CHIKV 899 [9]: 1.5 fold; fold less sensitive, MADTP-314-resistant variants vs wild-type [3]: ~ 11 fold; incorporation of 32P-CTP into CHIKV RNA by isolated RTCs [11]: did not inhibit the incorporation; CHIKV RNA synthesis (3H-uridine incorporation) [12]: did not inhibit CHIKV RNA synthesis; luciferase activity (translation of replication-deficient CHIKV RNA) [13]: comparable to that in untreated control cells"
CCCOc1ccc(-n2nnc3c(=O)[nH]c(C)nc32)cc1 [MADTP-346],–,–,–,–,–,–,> 1000,–,–,GT activity of VEEV nsP1 (formation of m7GMP-nsP1 complex) [16]: did not inhibit the GT activity; anti-CHIKV activity in cell culture [17]: devoid of anti-CHIKV activity
"CCc1nc2c(nnn2-c2cccc(OC(C)C)c2)c(=O)[nH]1 [MADTP-372, 5-ethyl-3-(3-isopropoxyphenyl)-3H-[1,2,3]triazolo[4,5-d]-pyrimidin-7(6H)-one]",255 ± 16,–,0.75 ± 0.4,2.6 ± 1,6.8,4.9 ± 0.6,> 1000,1.4 ± 0.01,> 668,GT activity of VEEV nsP1 (formation of m7GMP-nsP1 complex) [16]: inhibited the GT activity of VEEV nsP1 in a concentration-dependent manner; IC50 [16]: 10 ± 0.3 µM; CC50 [18]: > 400 µM
CCc1nc2c(nnn2-c2cccc(C(C)=O)c2)c(=O)[nH]1 [MADTP-393],193 ± 14,–,1.4 ± 0.3,18 ± 6.4,35 ± 10,15 ± 0.8,–,8.2 ± 2.2,57,–
"NC(=O)c1nc(F)c[nH]c1=O [T-705, reference compound]",34 ± 5.7,–,–,–,–,–,–,–,–,"EC50 [1, 20]: 20 ± 2.7 µM; reduction in CHIKV RNA [2]: 1.0 log10; anti-CHIKV activity in a mouse model [19]: exerts anti-CHIKV activity; cross-resistance of MADTP-314-resistant variants [3]: No cross-resistance; anti-CHIKV activity in vitro [6]: exerts anti-CHIKV activity"
CCOC(=O)c1c(CSc2ccccc2)n(C)c2cc(Br)c(O)c(CN(C)C)c12 [arbidol],–,inhibited CHIKVpp entry in a dose-dependent manner,–,–,–,–,–,–,–,–
